According to patent US11987647B2, “Cyclic cell-penetrating peptides with one or more hydrophobic residues” (Ohio State Innovation Foundation, priority 2018, dated 2024):
[ ]: non-standard residue; d: D form. The star is where a group is joined. FtBu = phenylalanine with a tert-butanoyl substituent (F^tBu); 2Nal = N[C@@H](Cc1ccc2ccccc2c1)C(=O)O; Fmoc = O=C(OCC1c2ccccc2-c2ccccc21)*; Decanoyl = CCCCCCCCCC(=O)*; Octanoyl = CCCCCCCC(=O)*; Orn = NCCC[C@H](N)C(=O)O; Dap = NC[C@H](N)C(=O)O; Hexanoyl = CCCCCC(=O)*

Tests used:
Assay type in all cases: cell-based
HeLa cells [1] = test: Cytosolic entry efficiency of NF-labelled peptides by flow cytometry; conditions: for Cellular Entry Efficiency In 10% FBS: 2 h, relative to CPP12 (100%); for CPP activity compared with CPP1-4 (in words): variant of CPP1-4; for CPP activity compared with CPP1-15 (in words): stereochemical variation of CPP1-15; for sensitivity to serum concentration: 10% vs 1% FBS, compared with CPP9 or CPP12
Procedure: All of the peptides were labeled with naphthofluorescein (NF) at the Gln side chain through a long, flexible linker, miniPEG-Lys. HeLa cells were treated with 5 μM peptide for 2 h in the presence of 10% FBS and the cytosolic entry of the peptides was quantitated by flow cytometry analysis.
To determine cellular uptake efficiency of the CPPs disclosed herein, HeLa cells were cultured in 12-well plates (1.5×10^5 cells per well) overnight. The cells were incubated for 2 h with […] naphthofluorescein (NF)-labelled peptide in cellular media. At the end of incubation, the cells were washed with DPBS twice, detached from the plate with 0.25% trypsin, diluted into clear DMEM, pelleted at 250 g for 5 min, washed twice with DPBS, resuspended in DPBS, and analyzed on a BD FACS LSR II flow cytometer. For NF-labelled peptides, a 633-nm laser was used for excitation and the fluorescence emission was analyzed in the APC channel. Absolute cellular uptake efficiency was determined by comparing the concentration (via fluorescence intensity) of the CPP in the cytosol to the concentration in the extracellular medium. Relative cellular uptake efficiency was determined by comparing the cytosolic concentration of the CPP to that cytosolic concentration of the control CPP cyclo(FΦRRRRQ).

HeLa cells [2] = test: as above; conditions: for Cellular Entry Efficiency In 1% FBS: relative to CPP12 (100%); for cytosolic entry efficiency: reduced serum concentration (1% FBS), CPP12 most active
HeLa cells [3] = test: Cellular entry by live-cell confocal imaging of FITC-labelled peptides; conditions: 5 μM FITC-labelled peptide, 2 h
Procedure: CPP1-15 and CPP1-20 were labeled with FITC via a miniPEG-Lys linker. HeLa cells were treated with 5 μM peptide for 2 h, washed, and imaged by live-cell confocal imaging. […] Additional experiments are ongoing to further examine their mechanism of cell entry.

[4] = Table 4, 5 μM NF-labelled peptide, 10% FBS
[5] = Table 7, 5 μM NF-labelled peptide, 10% FBS

Substance | Cellular Entry Efficiency In 10% FBS (HeLa cells [1]; [4]) | Cellular Entry Efficiency In 10% FBS (HeLa cells [1]; [5]) | Cellular Entry Efficiency In 1% FBS (HeLa cells [2]; Table 4, NF-labelled peptide) | Cellular Entry Efficiency In 1% FBS (HeLa cells [2]; Table 7, NF-labelled peptide) | also measured
cyclo(Dap^OctanRRRRQ) (cyclo([Dap](Octanoyl)RRRRQ); SMILES CCCCCCCC(=O)NC[C@@H]1NC(=O)[C@H](CCC(N)=O)NC(=O)[C@H](CCCNC(=N)N)NC(=O)[C@H](CCCNC(=N)N)NC(=O)[C@H](CCCNC(=N)N)NC(=O)[C@H](CCCNC(=N)N)NC1=O) [CPP1-3] | 5.7 ± 0.6% | 5.7 ± 0.6% |  |  | 
cyclo(Dap^DecaRRRAQ) (cyclo([Dap](Decanoyl)RRRAQ); SMILES CCCCCCCCCC(=O)NC[C@@H]1NC(=O)[C@H](CCC(N)=O)NC(=O)[C@H](C)NC(=O)[C@H](CCCNC(=N)N)NC(=O)[C@H](CCCNC(=N)N)NC(=O)[C@H](CCCNC(=N)N)NC1=O) [CPP1-13] | 32 ± 2% | 32 ± 2% | 33% | 33% | CPP activity compared with CPP1-4 (in words) (HeLa cells [1]): reduced the CPP activity
cyclo(Lys^DecarRrRQ) [CPP1-19] | 12% | 12% |  |  | CPP activity compared with CPP1-15 (in words) (HeLa cells [1]): reduced the CPP activity
cyclo(Dap^DecaRrRrQ) [CPP1-10] | 21 ± 9% | 21 ± 9% | 24% | 24% | CPP activity compared with CPP1-4 (in words) (HeLa cells [1]): substantially decreased the CPP activity
cyclo(Asp^DecyRrRrQ) [CPP1-22] | 11% | 11% |  |  | 
cyclo(Dap^1-PyrenRRRRQ) (cyclo([Dap](1‑pyrenoyl)RRRRQ)) [CPP1-5] | 10 ± 20% | 10 ± 20% |  |  | 
cyclo(Asp^DecyRRRRQ) (cyclo(DRRRRQ); not fully specified (residue 1); printed as cyclo(Asp^DecyRRRRQ)) [CPP1-20] | 281 ± 59% | 281 ± 59% | 94 ± 41% | 94 ± 41% | improvement in activity (HeLa cells [1]; 10% FBS, relative to CPP1-4): ~5 fold; sensitivity to serum concentration (HeLa cells [1]): lower sensitivity to serum concentration; fold more active than CPP9 and CPP12 (HeLa cells [1]; in the presence of 10% FBS): −3 fold; cellular entry (confocal imaging) (HeLa cells [3]): entered HeLa cells efficiently; cytosolic entry efficiency (HeLa cells [2]): 94%
cyclo(FfΦRrRrQ) [CPP12, reference compound] | 100% | 100% | 100% | 100% | 
cyclo(F^tBuRRRRQ) (cyclo([FtBu]RRRRQ)) [CPP1-1] | 6.7 ± 0.4% | 6.7 ± 0.4% |  |  | 
cyclo(Dap^DecarRrRQ) [CPP1-11] | 20 ± 6% | 20 ± 6% | 29% | 29% | CPP activity compared with CPP1-4 (in words) (HeLa cells [1]): substantially decreased the CPP activity
cyclo(Dap^FmocRRRRQ) (cyclo([Dap](Fmoc)RRRRQ); SMILES N=C(N)NCCC[C@@H]1NC(=O)[C@H](CCCNC(=N)N)NC(=O)[C@H](CCCNC(=N)N)NC(=O)[C@H](CNC(=O)OCC2c3ccccc3-c3ccccc32)NC(=O)[C@H](CCC(N)=O)NC(=O)[C@H](CCCNC(=N)N)NC1=O) [CPP1-7] | 17 ± 1% | 17 ± 1% |  |  | 
cyclo(Dap^DecaARRRQ) (cyclo([Dap](Decanoyl)ARRRQ); SMILES CCCCCCCCCC(=O)NC[C@@H]1NC(=O)[C@H](CCC(N)=O)NC(=O)[C@H](CCCNC(=N)N)NC(=O)[C@H](CCCNC(=N)N)NC(=O)[C@H](CCCNC(=N)N)NC(=O)[C@H](C)NC1=O) [CPP1-12] | 26 ± 4% | 26 ± 4% | 34% | 34% | CPP activity compared with CPP1-4 (in words) (HeLa cells [1]): reduced the CPP activity
cyclo(FΦRRRRQ) (cyclo(F[2Nal]RRRRQ); SMILES N=C(N)NCCC[C@@H]1NC(=O)[C@H](CCCNC(=N)N)NC(=O)[C@H](CCCNC(=N)N)NC(=O)[C@H](Cc2ccc3ccccc3c2)NC(=O)[C@H](Cc2ccccc2)NC(=O)[C@H](CCC(N)=O)NC(=O)[C@H](CCCNC(=N)N)NC1=O) [CPP1, the first cyclic CPP discovered, reference compound] | 21% | 21% |  |  | 
cyclo(Dap^DecaRRRRRQ) (cyclo([Dap](Decanoyl)RRRRRQ); SMILES CCCCCCCCCC(=O)NC[C@@H]1NC(=O)[C@H](CCC(N)=O)NC(=O)[C@H](CCCNC(=N)N)NC(=O)[C@H](CCCNC(=N)N)NC(=O)[C@H](CCCNC(=N)N)NC(=O)[C@H](CCCNC(=N)N)NC(=O)[C@H](CCCNC(=N)N)NC1=O) [CPP1-14] | 12 ± 1% | 12 ± 1% | 21% | 21% | CPP activity compared with CPP1-4 (in words) (HeLa cells [1]): greatly decreased the CPP activity
cyclo(Lys^DecaRrRrQ) [CPP1-18] | 31% | 31% |  |  | CPP activity compared with CPP1-15 (in words) (HeLa cells [1]): reduced the CPP activity
cyclo(Dap^DecaRRRRQ) (cyclo([Dap](Decanoyl)RRRRQ); SMILES CCCCCCCCCC(=O)NC[C@@H]1NC(=O)[C@H](CCC(N)=O)NC(=O)[C@H](CCCNC(=N)N)NC(=O)[C@H](CCCNC(=N)N)NC(=O)[C@H](CCCNC(=N)N)NC(=O)[C@H](CCCNC(=N)N)NC1=O) [CPP1-4] | 57 ± 19% | 57 ± 19% |  |  | activity, fold higher than CPP1 (HeLa cells [1]; 10% FBS, versus CPP1): 2.5 fold; sensitivity to serum concentration (HeLa cells [1]): lower sensitivity to serum concentration; cytosolic entry efficiency (HeLa cells [2]): 44%
cyclo(Dap^DecaRRRQ) (cyclo([Dap](Decanoyl)RRRQ); SMILES CCCCCCCCCC(=O)NC[C@@H]1NC(=O)[C@H](CCC(N)=O)NC(=O)[C@H](CCCNC(=N)N)NC(=O)[C@H](CCCNC(=N)N)NC(=O)[C@H](CCCNC(=N)N)NC1=O) [CPP1-16] | 3.0 ± 0.1% | 3.0 ± 0.1% | 25% | 25% | CPP activity compared with CPP1-4 (in words) (HeLa cells [1]): greatly decreased the CPP activity
cyclo(fΦRrRrQ) [CPP9, reference compound] | 94 ± 7% | 94 ± 7% | 32 ± 6% | 32 ± 6% | cytosolic entry efficiency (HeLa cells [2]): 32%
cyclo(Asp^DecyrRrRQ) [CPP1-24] | 8.6% | 8.6% |  |  | 
cyclo(Dap^HexanRRRRQ) (cyclo([Dap](Hexanoyl)RRRRQ); SMILES CCCCCC(=O)NC[C@@H]1NC(=O)[C@H](CCC(N)=O)NC(=O)[C@H](CCCNC(=N)N)NC(=O)[C@H](CCCNC(=N)N)NC(=O)[C@H](CCCNC(=N)N)NC(=O)[C@H](CCCNC(=N)N)NC1=O) [CPP1-2] | 2.9 ± 0.2% | 2.9 ± 0.2% |  |  | 
cyclo(Glu^DecyrRrRQ) [CPP1-25] | 34% | 34% |  |  | 
cyclo(Dap^3,3-diphenyRRRRQ) (cyclo([Dap](3,3‑diphenylpropanoyl)RRRRQ)) [CPP1-6] | 3.9 ± 0.4% | 3.9 ± 0.4% |  |  | 
cyclo(Dap^1-PyrenebRRRRQ) (cyclo([Dap](1‑pyrenylbutanoyl)RRRRQ)) [CPP1-8] | 24 ± 1% | 24 ± 1% |  |  | 
cyclo(Glu^DecyRrRrQ) [CPP1-23] | 1.4% | 1.4% |  |  | 
cyclo(Orn^DecaRRRRQ) (cyclo([Orn](Decanoyl)RRRRQ); SMILES CCCCCCCCCC(=O)NCCC[C@@H]1NC(=O)[C@H](CCC(N)=O)NC(=O)[C@H](CCCNC(=N)N)NC(=O)[C@H](CCCNC(=N)N)NC(=O)[C@H](CCCNC(=N)N)NC(=O)[C@H](CCCNC(=N)N)NC1=O) [CPP1-17] | 115 ± 32% | 115 ± 32% | 58 ± 22% | 58 ± 22% | sensitivity to serum concentration (HeLa cells [1]): lower sensitivity to serum concentration; CPP activity compared with CPP1-4 (in words) (HeLa cells [1]): slightly increased the CPP activity; cytosolic entry efficiency (HeLa cells [2]): 58%
